# Laboratory results reported in patent US8410150B2, “Inhibitors of carnitine palmitoyltransferase and treating cancer” (University Health Network, priority 2007, dated 2013).
# Assays:
# Assay in all cases: Cell growth inhibition, SRB assay
# Format in all cases: cell-based, human
# [1] = system: Caov-3; settings: Ovarian Caov-3, 3% FBS
# Experimental: (§1) Compounds were dissolved in DMSO and further diluted in cell culture medium for the experiments performed. Cells were seeded into 96-well plates with 1,500-5,000 cells/well according to cell growth rate. After 24 h, DMEM medium containing 10% FBS were changed to DMEM containing 3% FBS for cancer cells and additional 3% FBS were added into the culture medium for normal cells. The compound was added into the cell culture at the indicated concentrations, and the final concentration of DMSO was adjusted to a final concentration of 0.1%. Cells were subjected to either normoxic condition (20% O2) for 6 days or hypoxic condition (0.2% O2) for 2 days and then transferred to normoxic condition for 4 days. Cell viability was assessed by Sulforhodamine B (SRB) assay at Day 6.
# (§2) Sulforhodamine B (SRB) (Sigma, Oakville, ON, Canada) is a water-soluble dye that binds to the basic amino acids of the cellular proteins. Thus, colorimetric measurement of the bound dye provides an estimate of the total protein mass that is related to the cell number. The cells were fixed in situ by gently aspirating off the culture media and adding 50 ul of cold 10% trichloroacetic Acid (TCA) per well and incubated at 4° C. for 30-60 min. The plates were washed five times with water and allowed to air dry for 5 min. 50 ul of 0.4% (w/v) SRB dissolved in 1% (v/v) acetic acid were added into each well, plates were then incubated at RT for 30 min for staining, washed four times with 1% acetic acid to remove any unbound dye and then allowed to air dry for 5 min. Stain was solubilized with 100 ul of 10 mM Tris pH 10.5 per well. Absorbance was read at 570 nm on a spectrophotometer. GI50 (compound concentration required for 50% of growth inhibition) was calculated using GraphPad Prism 4.0 software (GraphPad Software, Inc., San Diego, Calif., USA).
# (§3) Cell viability of various cell lines treated with 3-carboxy-N,N,N-trimethyl-2-pentadecanamidopropan-1-aminium (“nPAC”) and compound of Examples S7, S63, S66, S90, S89, S67, S75 and S10 was also assessed in a manner as described above in Example 5.
# [2] = system: HCT-15; settings: Colon HCT-15, 3% FBS
# Experimental: as §1, §2, §3
# [3] = system: A54; settings: Lung A54, 3% FBS
# Experimental: as §1, §2, §3
# [4] = system: MDA-231; settings: Breast MDA-231, 3% FBS
# Experimental: as §1, §2, §3
# [5] = system: Hs578T; settings: Breast Hs578T, 3% FBS
# Experimental: as §1, §2, §3
# [6] = system: COLO-205; settings: Colon COLO-205, 3% FBS
# Experimental: as §1, §2, §3
# [7] = system: SW620; settings: Colon SW620, 3% FBS
# Experimental: as §1, §2, §3
# [8] = system: SW480; settings: Colon SW480, 3% FBS
# Experimental: as §1, §2, §3
# [9] = system: H358; settings: Lung H358, 3% FBS; read-out: GI50
# Experimental: (§4) Human cancer cells (MCF-7, H358, H460, HCT116 p53^+/+, HCT116 p53^−/−, A172, PC-3, DU-145 and SW626) were maintained in DMEM medium containing 10% Fetal Bovine Serum (FBS) (Invitrogen, Burlington, ON, Canada) and normal cells HMEC, 184A1, NHBE and PrEC were cultured in MEGM, MEGM plus transferring and cholera toxin, BEGM and PrEGM supplemented with various growth factors (Cambrex, Charles city, IA, USA), respectively.
# as §1, §2, §3
# [10] = system: SW626; settings: Ovarian SW626, 3% FBS; read-out: GI50
# Experimental: as §4, §1, §2, §3
# [11] = system: PC-3; settings: Prostate PC-3, 3% FBS; read-out: GI50
# Experimental: as §4, §1, §2, §3
# [12] = system: MCF-7; settings: Breast MCF-7, 3% FBS; read-out: GI50
# Experimental: as §4, §1, §2, §3
# [13] = system: A172; settings: Brain A172, 3% FBS; read-out: GI50
# Experimental: as §4, §1, §2, §3
substance,measurement,setting,value
"3-carboxy-N,N,N-trimethyl-2-pentadecanamidopropan-1-aminium [nPAC, reference compound]",GI50,[1],1300 nM
same,GI50,[2],1500 nM
same,GI50,[3],20000 nM
same,GI50,[4],10000 nM
same,GI50,[5],19000 nM
same,GI50,[6],400 nM
same,GI50,[7],500 nM
same,GI50,[8],400 nM
same,GI50,[9],700 nM
same,GI50,[10],1200 nM
same,GI50,[11],2500 nM
same,GI50,[12],6600 nM
same,GI50,[13],3200 nM
